No end group written: not given here.

Data on four compounds can be found in US10328075B2, “Method of treatment and compounds for use therein” (Baker Heart and Diabetes Institute, priority 2015, dated 2019).

In test [1] the test system is myocardial I-R injury in C57BL/6 mice. As to the kind of experiment: Myocardial I-R in mice: systemic inflammation after 48 h reperfusion. In kind it is in vivo, mouse. On the procedure: Male C57BL/6 mice were breed and housed in the AMREP Animal Centre and maintained under a 12 h light/dark cycle. After anaesthesia (i.p., ketamine 80 mg/kg, xylazine 20 mg/kg and atropine 1.2 mg/kg), mice were randomly assigned to 24 h, 48 h and 7 days reperfusion groups and underwent reversible left arterial descending (LAD) ligation as described (Gao XM, 2011; JMCC, 50; Gao XM, 2000, JMCC). Following sedation, mice were intubated and ventilated (Harvard apparatus, MA, USA) with room air mixed with oxygen (tidal volume 0.25 mL, 150 breath/min), and placed on a heating pad. A left thoractomy will be made via the ˜third intercostal space, where the beating heart was located.
The LAD was reversibly ligated using 7-0 silk suture with a slipknot enclosing two releasing rings. Regional ischaemia was confirmed by pale colour of the ligated area. Air was then evacuated from the chest, the cavity was closed and normal respiration was restored. After 40-60 min of ischaemia, blood flow through the left coronary artery was re-established by releasing the slipknot. Sham-operated mice underwent identical surgical procedures except the coronary arteries were not ligated. Three cohorts of mice were scheduled. Cohort 1 was subjected to 40 min ischaemic-24 h reperfusion for the assessment of cardiac necrosis. Cohort 2 was subjected to 60 min occlusion with 48 h reperfusion for the quantification of cardiac and systemic inflammation. The last cohort was subjected to 7 d reperfusion and early cardiac fibrosis was assessed.
Treatment with study drugs: Animals were randomly assigned to different groups and all treatments were administrated 5 min prior to reperfusion of the LAD. The peptide Ac2-26 (1 mg kg^−1) (Chemieliva, Chongqing, China) and its vehicle (10% dimethyl sulfoxide (DMSO) in saline) were intravenously (i.v.) injected via the tail vein. […] Mice then received drug or vehicle injections daily until the experimental endpoint. The two different vehicles groups reflect different study drug solubility and administration routes.
Assessment of systemic inflammation: Blood samples collected from mice subjected to 60 min ischaemia and 48 h reperfusion were diluted 1:20 into 2% acetic acid to lyse the red blood cells for total WBC counting, using a haemocytometer. Blood smears were stained using a hemacolor staining kit (Merck millipore, Melbourne, Australia) and then examined under 60× magnification using an Olympus Biological CHS microscope (Olympus Inc., Tokyo, Japan) for manual counting of neutrophils, lymphocytes and monocytes per 100 WBCs.
Animal Surgery: Adult C57BL/6 mice were randomly assigned to myocardial ischemia-reperfusion (I-R) injury or sham in vivo. Anesthetized mice (ketamine 80 mg/kg, xylazine 20 mg/kg and atropine 1.2 mg/kg, KXA, i.p.) underwent reversible left arterial descending (LAD) ligation as described (Gao et al. 2000 & Gao et al. 2011). Following sedation, mice were intubated and ventilated (Harvard apparatus, MA, USA) with room air mixed with oxygen (tidal volume 0.25 mL, 150 breaths/min), and placed on a heating pad. A left thoractomy was be made around the third intercostal space, where the beating heart was located. The LAD was reversibly ligated using 7-0 silk suture with a slipknot enclosing two releasing rings. Regional ischemia was confirmed by pale color of the ligated area. Air was then evacuated from the chest, the cavity closed and normal respiration restored. Blood flow through the left coronary artery was subsequently re-established at the end of the ischemic period (i.e. reperfusion) by releasing the slipknot. Three distinct cohorts of mice were studied. Cohorts 1 and 2 were subjected to 40 mins ischemia with either 24 h or 7 days reperfusion, optimal timepoints for the assessment of cardiac necrosis and early cardiac remodeling in vivo, respectively. Cohort 3 was subjected to 60 mins LAD occlusion with 48 h reperfusion, for the quantification of cardiac and systemic inflammation. […]

Test [2] deals with T1, hFPR1 (Homo sapiens, UniProt P21462).
T1 construct: expressed in transfected cells
T1 sequence (P21462 1-350): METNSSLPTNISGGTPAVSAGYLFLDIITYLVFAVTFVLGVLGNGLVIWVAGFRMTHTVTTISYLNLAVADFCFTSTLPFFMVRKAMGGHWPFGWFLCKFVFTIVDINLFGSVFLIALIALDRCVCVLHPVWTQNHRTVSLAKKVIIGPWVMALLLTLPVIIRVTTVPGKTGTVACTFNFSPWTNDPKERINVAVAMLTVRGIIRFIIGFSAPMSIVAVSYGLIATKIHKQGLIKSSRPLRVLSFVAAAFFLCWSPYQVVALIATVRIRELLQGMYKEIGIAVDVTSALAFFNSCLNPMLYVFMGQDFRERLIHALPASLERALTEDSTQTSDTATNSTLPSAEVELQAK
As to the kind of experiment: Quantification of biased agonism (operational model) at hFPR1 in CHO cells. Particulars: for Bias (away from Ca2+i), hFPR1-FlpInCHO cells in vitro: Table 9. The class given is cell-based.
Text: To quantify biased agonism mediated by each agonist across the various pathways ([Ca^2+], mobilization, pERK1/2, Akt1/2/3 and inhibition of cAMP accumulation), agonist concentration-response curves were refitted using the operation model normalized to the transduction ratio of a reference agonist (in this case, BIDI-002) as described previously (Stewart G D et al., 2009). Under these conditions, if the test agonist and the reference agonist activate the two pathways through a common receptor conformation, the log [bias factor] should be 0.0 (or bias factor different from 1.0), irrespective of differences in response amplification between pathways. In contrast, significant deviation of log [bias factor] from 0.0 (or bias factor different from 1.0) indicates the involvement of distinct conformations for the different agonists. All affinities, potencies, efficacies, and cooperativity parameters were estimated as logarithms (Christopoulos, 1998). Results are expressed as means±S.E. unless otherwise stated. Statistical analyses were by Student's t test, or one-way ANOVA followed by Dunnett's Comparison or Tukey's post-hoc test, as appropriate. Values of p<0.05 were considered statistically significant.
A “transduction ratio” is firstly derived for each response (τ/KA, where τ represents efficacy, and KA affinity, of the agonist for each GPCR conformational state), extracted from each concentration-response curve. “Bias factors” (ΔΔ(τ/KA)) were then calculated by normalizing the transduction ratio to a reference ligand (in this case, Cmpd43) and reference pathway, which here was Akt1/2/3(Thr308) phosphorylation. Lastly, bias factors were plotted on a ‘web of bias’ to visualize the potential for biased agonism. […] Under these conditions, if the test agonist and the reference agonist activate the two pathways through a common receptor conformation, the log [bias factor] should be 0.0 (i.e. the bias factor 1.0), irrespective of differences in response amplification between pathways. In contrast, significant deviation of log [bias factor] away from 0.0 (i.e. where the bias factor is different to 1.0) indicates the involvement of distinct conformations for the different agonists. All affinities, potencies, efficacies, and cooperativity parameters were estimated as logarithms (Kenakin et al. 2012).
Five signaling pathways were examined, namely pERK1/2-phosphorylation, Akt1/2/3(Ser473)-phosphorylation, Akt1(Thr308)-phosphorylation, increases in Ca2+i and inhibition of forskolin-induced cAMP accumulation. An operational model of agonism was fitted to each concentration-response curve to estimate a transduction ratio (τ/KA) for each agonist, at each pathway assessed, as described (FIG. 21B) (Kenakin et al. 2012). Transduction ratios were normalized to a reference agonist (Cmpd43) and a reference pathway (Akt1/2/3(Thr308)-phosphorylation), generating bias factors and therefore allowing quantitative cross-pathway comparison for each agonist.

Setting [3] is: 48 h reperfusion, listed as Cmpd17b.

As to `COc1cccc(Cc2cc(C)nn(C(C)C(=O)Nc3ccc(Br)cc3)c2=O)c1` (stereo not drawn) [BIDI-001, N-(4-bromophenyl)-2-[5-(3-methoxybenzyl)-3-methyl-6-oxo-6H-pyridazin-1-yl]-propionamide], in test [1] (48 h reperfusion), the “Effect on circulating IL-1β” value was “significantly blunted”, the “Effect on circulating lymphocytes” value is “tended to reduce”, the “Effect on circulating monocytes” value is reported as “without affecting” and the “Effect on circulating neutrophils” value is reported as “absent”. Besides, the “Effect on total circulating WBC” value in test [1] (48 h reperfusion) is “tended to reduce”. Further, in test [1] (setting [3]), the “Effect on circulating lymphocytes” value was “significantly blunted” and the “Effect on total circulating WBC” value is “absent”.

With `CC(C)C1C(NC(=O)Nc2ccc(Cl)cc2)C(=O)N(c2ccccc2)N1C` (stereo not drawn) [BIDI-002], the “Effect on systemic inflammation / early inflammatory response 48 h post I-R” value in test [1] (50 mg/kg i.p.) is “not”. Moreover, in test [1] (48 h reperfusion), the “Effect on circulating lymphocytes” value is given as “significantly increased” and the “Effect on circulating monocytes” value is listed as “significantly increased”. Also, in test [2], the “Bias (away from Ca2+i), hFPR1-FlpInCHO cells in vitro” value is “No”. Moreover, the “Preference to Akt phosphorylation, ERK phosphorylation and cAMP accumulation (degree of bias)” value in test [2] (operational model, relative to BIDI-002, hFPR receptors) is “approximately 20 fold”.

For `Cc1cc(Cc2cccnc2)c(=O)n(CC(=O)Nc2ccc(Cl)cc2)n1` [MIPS-0010396], the “Bias (away from Ca2+i), hFPR1-FlpInCHO cells in vitro” value in test [2] is reported as “Strong”. The “Biased agonism / bias away from Ca2+i” value in test [2] (in words) is “displays Ca2+i bias”.

With “Ac2-26: Annexin-A1 N-terminal peptide, peptide ANX-A1 mimetic (Ac-AMVSEFLKQAWFIENEEQEYVQTVK; UniProt P04083 2-26, looked up, fragment)”, in test [1] (48 h reperfusion), the “Effect on total circulating WBC” value is on record as “did not significantly alter”.
